“Also recorded” adds a separate entry of the source.
Tests used:
[1] = system: aged C57B1/6J mice; assay: Chronic steviol treatment, subjective rating of fur and skin condition pre- and post-treatment; assay type: in vivo; conditions: 120 mg/kg/d in diet, 6 weeks, pre- vs post-treatment
Procedure: FIG. 2 Effects of chronic steviol treatment (120 mg/kg, p.o., 6 weeks) on (a) fur colour and (b) hair loss in aged C57B1/6J mice. […] [table] Female, aged, C57B1/6J mice (22-24 months of age) were assessed for their fur quality at the start and end of a six-week study. Prior to commencement of treatment, photographs were taken of all mice whilst under light anaesthesia (2.2-2.4% isofluorane). Mice were then fed either placebo diet or diet supplemented with steviol (120 mg/kg/d) for six weeks. At the end of the six week treatment phase, mice were again anaesthetised and further photographs were taken. Eleven participants with extensive experience of performing experimental studies using mice were asked to complete the same questionnaire (see Table 1), to enable subjective rating of a number of parameters of fur quality and of the appearance of skin wounds, by assessing the photographs taken before and after treatment. Statistical analyses were performed using Prism 5 (GraphPad Software, La Jolla, Calif., USA) and comprised two-way ANOVA (test factors: Time and Treatment), followed by Bonferroni post-hoc tests, where appropriate.

[2] = system: Human hair follicles; assay: Growth of human hair follicle (length measurements); assay type: cell-based
Procedure: (§1) Human hair follicles were obtained from human skin fragments (obtained by plastic surgery) and grown in supplemented William's E medium supplemented with penicillin/streptomycin, L-glutamine (2 mM/L), insulin (10 μg/mL and hydrocortisone (8 nM/L). Hair follicle growth was assessed via length measurements (days 0, 4, and 7). Triiodothyronine (T3, 30 μM/L) was used as positive control. The effect of steviol (at 0.625-5 μg/mL) was tested in parallel. On day 7, RNA was extracted from hair follicles that had been subjected to different treatments (control, T3, steviol). RNA was processed for Affymetrix® DNA microarray analysis in order to identify effects of compounds on gene expression. Where appropriate, RNA expression levels were further quantified by RT-PCR using the ABI 7900 Taqman instrumentation.

[3] = system: Human hair follicles; assay: Gene expression in human hair follicles by DNA microarray analysis; assay type: cell-based
Procedure: as §1, with “instrumentation. […] Global effects of steviol on gene expression were determined by transcriptomics i.e. DNA microarray analysis. The obtained data were processed with Genedata software tools. […] Thus another aspect of this invention is a method of up-regulating at least one of the genes listed in Table 3 comprising administering steviol and observing a hair growth effect.” for “instrumentation.”

[4] = system: human hair follicle; assay: mRNA level of marker genes in human hair follicle by RT-PCR; assay type: cell-based
Procedure: as §1, with “The effect of steviol (at 0.625-5 μg/mL) was tested in parallel.” left out, “instrumentation. […] The mRNA level of some marker genes involved in growth and/or differentiation of cells in the skin and in hair follicle was further determined by RT-PCR and is shown in Table 4.” for “instrumentation.”

[5] = system: whole mouse skin; assay: Gene expression in whole mouse skin by quantitative RT-PCR after dietary supplementation; assay type: in vivo, mice; conditions: eight weeks
Procedure: The effect of steviol on gene expression was also analysed in whole mouse skin (also containing hair follicles). To this aim, mice were fed a normal diet or a diet supplemented with steviol (see also relevant data above). After eight weeks of supplementation, mice were sacrificed and skin was isolated and freed from hair. Quantitative RT-PCR was performed for selected genes using the same technology as described for hair follicles (see above). Remarkably, we identified changes in expression levels of some genes that are involved in skin physiology and homeostasis.

Which “fur colour (greying; subjective rating score)” value [1] does the source give for C=C1C[C@@]23CC[C@H]4[C@@](C)(CCC[C@@]4(C)C(=O)O)[C@@H]2CC[C@]1(O)C3 [Steviol, steviol] here?
The value was “significantly improved hair colour (i.e. reduced greying); also recorded: significantly improved fur colour”.

What about the “hair loss (subjective rating score)” value [1] of the same molecule?
The value was “significantly improved (i.e. reduced) hair loss”.

And the “hair loss (subjective rating score)” value ([1]; listed as steviol)?
Its value is “significant reduction of hair loss”.

And the “Growth (% of control)” value ([2]; 0.625 μg/mL)?
The value was 122 % of control.

What about the “Growth (% of control)” value ([2]; 1.25 μg/mL) of the same molecule?
The value was 121 % of control.

And the “Growth (% of control)” value ([2]; 2.5 μg/mL)?
Its value is 113 % of control.

And the “Growth (% of control)” value ([2]; 5 μg/mL)?
The value was 117 % of control.

What about the “elongation of hair follicles” value ([2]; 0.625-5 μg/mL) of the same molecule?
Its value is “dose-dependently favoured the elongation of hair follicles”.

What about the “Ratio of steviol-treated/untreated: CASP8 and FADD-like apoptosis regulator” value ([3]; day 7, microarray) of the same molecule?
The value was 2.58.

What about the “Ratio of steviol-treated/untreated: Chemokine (C-X-C motif) ligand 12 (stromal cell-derived factor 1)” value ([3]; day 7, microarray) of the same molecule?
The value was 2.22.

And the “Ratio of steviol-treated/untreated: Collagen, type IV, alpha 6” value ([3]; day 7, microarray)?
The value was 2.04.

What about the “Ratio of steviol-treated/untreated: Fibroblast growth factor 7 (keratinocyte growth factor)” value ([3]; day 7, microarray) of the same molecule?
Its value is 2.91.

What about the “Ratio of steviol-treated/untreated: Insulin-like growth factor 1 receptor” value ([3]; day 7, microarray) of the same molecule?
Its value is 2.00.

What about the “Ratio of steviol-treated/untreated: Integrin, alpha 6” value ([3]; day 7, microarray) of the same molecule?
The value was 2.15.

And the “Ratio of steviol-treated/untreated: TIMP metallopeptidase inhibitor 3” value ([3]; day 7, microarray)?
Its value is 2.32.

What about the “Ratio of steviol-treated/untreated: Topoisomerase (DNA) II alpha 170 kDa” value ([3]; day 7, microarray) of the same molecule?
Its value is 2.45.

What about the “Ratio of steviol-treated/untreated: Transmembrane protein with EGF-like and two follistatin-like domains 2” value ([3]; day 7, microarray) of the same molecule?
The value was 3.10.

And the “biological pathways whose gene expression is modulated” value ([3]; microarray, Genedata pathway mapping)?
Its value is “modulated gene expression of the pathways of epidermal development, ectoderm development and keratinocyte differentiation with a high statistical significance”.

And the “Fold changes (versus control): Integrin alpha-6” value ([4]; 0.625 μg/mL)?
The value was 1.62 ± 0.06 fold.

And the “Fold changes (versus control): COX-2” value ([4]; 1.25 μg/mL)?
Its value is 0.46 ± 0.17 fold.

What about the “Fold changes (versus control): HO-1” value ([4]; 1.25 μg/mL) of the same molecule?
The value was 0.64 ± 0.08 fold.

What about the “Fold changes (versus control): Involucrin” value ([4]; 1.25 μg/mL) of the same molecule?
Its value is 0.51 ± 0.22 fold.

And the “Fold changes (versus control): Keratin 6” value ([4]; 10 μg/mL)?
The value was 1.33 ± 0.11 fold.

What about the “% of control (based on fold-change): CXC10” value [5] of the same molecule?
Its value is 132 ± 50 % of control.

What about the “% of control (based on fold-change): IL-6” value [5] of the same molecule?
Its value is 130 ± 31 % of control.

What about the “% of control (based on fold-change): MMP-8” value [5] of the same molecule?
The value was 73 ± 23 % of control.

And the “% of control (based on fold-change): MMP-13” value [5]?
Its value is 53 ± 9 % of control.

And the “% of control (based on fold-change): PPAR-δ” value [5]?
Its value is 60 ± 37 % of control.

Reference: patent US8759405B2, “Stevia extract or steviol for hair care” (DSM IP Assets B.V., priority 2009, dated 2014)
